Data published in PMC8241846, “Structure and lipid dynamics in the maintenance of lipid asymmetry inner membrane complex of A. baumannii” (Communications Biology, 2021).
Blank lines part the entries; values can stand above or below the molecule they belong to.

Tests used:
MlaBDEFab [1] = molecular target: T1, MlaBDEFab (Acinetobacter baumannii, UniProt A0A4P2WWN2+V5V921+V5V9F4); assay: cryo-EM map, […] A (no model deposited); format: binding; conditions: protein mixed 1:1 with 20 mM nucleotide, pH 8.0, 0.025% DDM; same nucleotide site; EMD-11084 in Table 1
T1 construct: gene ttg2A; full mla operon expressed in E. coli BL21(DE3), Ni-NTA purified (tag not described), in DDM; C2 complex MlaF2-MlaE2-MlaD6-MlaB2 (about half of particles with one MlaB)

MlaBDEFab [2] = molecular target: T1, MlaBDEFab; assay: cryo-EM structure, […] A; format: binding; conditions: Mg2+ seen in site; protein mixed 1:1 with 20 mM nucleotide, pH 8.0, 0.025% DDM; nucleotide site at MlaF/MlaE/MlaD interface (MlaF Lys55, Ser51, His211, Arg26); non-hydrolysable ATP analogue
[3] = molecular target: MlaD of the A. baumannii MlaBDEF complex (MlaBDEFab) (Acinetobacter baumannii) (UniProt V5V921); assay: cryo-EM structure; single-particle cryo-EM of the purified MlaBDEFab complex in DDM; 20 mM Hepes (pH 7.0), 150 mM NaCl, 0.025% (w/v) DDM; with AppNHp (3.9 Å, atomic model), also apo (~4.2 Å) and with ADP (~4.4 Å)
[4] = molecular target: MlaF of the A. baumannii MlaBDEF complex (MlaBDEFab) (Acinetobacter baumannii); assay: as above

Molecule: Nc1ncnc2c1ncn2[C@@H]1O[C@H](COP(=O)(O)OP(=O)(O)O)[C@@H](O)[C@H]1O [ADP]
cryo-EM map, 4.43 A (no model deposited) (MlaBDEFab [1]): confirms the presence of nucleotide in the AppNHp and ADP maps

Molecule: Nc1ncnc2c1ncn2[C@@H]1O[C@H](COP(=O)(O)OP(=O)(O)NP(=O)(O)O)[C@@H](O)[C@H]1O [AppNHp]
cryo-EM structure, 3.92 A (MlaBDEFab [2]): we observed clear density of the nucleotide and magnesium, within the MlaF binding pocket

Next, values leading:

stoichiometry N [3]: 6
Molecule: MlaD of the A. baumannii MlaBDEF complex (MlaBDEFab) (from UniProt V5V921 1-226) (natural protein)

percent of particles with MlaB bound to both MlaF [4]: 50%
B1: MlaB of the A. baumannii MlaBDEF complex (MlaBDEFab) (natural protein)
chain: MVQYLNQELVVSGKIDFENAEQQYQAGLAIIKKQTSFPLIVDLKQLEHGNTLALAVLVQWLRQTPQKSGLHFKNVPEKMLKIIQACHLQEDLHLV
